Read-outs that look alike come from different tables or passages of the source.
Key:
Assay type in all cases: in vivo
soybeans = assay: Herbicidal effect in a variety of soil types; conditions: Table XVII B
purple nutsedge = assay: Greenhouse pre-emergence GR15/GR85 selectivity test; conditions: Table XV; for selectivity factor (GR15/GR85): in rape
From the text: A good grade of top soil is placed in aluminum pans and compacted to a depth of three-eighths to one-half inch from the top of the pan. On the top of the soil is placed a number of seeds or vegetative propagules of various plant species. The soil required to level fill the pans after seeding or adding vegetative propagules is weighed into a pan. The soil and a known amount of the active ingredient applied in a solvent or as a wettable powder suspension are thoroughly mixed, and used to cover the prepared pans. After treatment, the pans are given an initial overhead irrigation of eater, equivalent to one-fourth inch (0.64 cm) rainfall, then watered by subirrigation as need to give adequate moisture for germination and growth. As an alternative procedure, the overhead irrigation may be omitted. Observations are made about 2-3 weeks after seeding and treatment.
In the discussion and tables of data below, reference is made to herbicide application rates symbolized as "GR15 " and "GR85 "; these rates are given in kilograms per hectare (kg/ha) which are convertible into pounds per acre (lbs/A) by dividing the kg/ha rate by 1.12.
A further guide to the effectiveness of a chemical as a selective herbicide is the "selectivity factor" ("SF") for a herbicide in given crops and weeds. The selectivity factor is a measure of the relative degree of crop safety and weed injury and is expressed in terms of the GR15 /GR85 ratio, i.e., the GR15 rate for the crop divided by the GR85 rate for the weed, both rates in kg/ha (lb/A). In the tables below, selectivity factors are shown in parenthesis following the GR85 rate for each weed; the symbol "NS" indicates "non-selective". Marginal or undetermined selectivity is indicated by a dash (--).
Additionally, pre-emergence herbicidal data from other tests have established that compounds according to this invention also selectively suppress quackgrass, yellow nutsedge and/or other weeds in one or more of the crops cotton, peanuts, bush beans and/or rape. For example, in Table VI are presented data showing the herbicidal selectivity of the compounds of Examples 1 and 2 against quackgrass in rape and snap beans. Unless otherwise noted; greenhouse tests in Table VI and in other tables below involved herbicide treatments by soil incorporation and an initial overhead irrigation followed by subirrigation as described above.
In other greenhouse tests, compounds according to this invention have shown selective control of a variety of annual and perennial weeds in various crops. As further illustrative, the compound of Example 1 selectively controlled purple nutsedge in both corn nd soybeans, the respective crop/weed GR15 /GR85 ratios (expressed in kg/ha) being 0.67/0.25 (S.F.=2.7) in corn and 1.1/0.25 (S.F.=4.5) in soybeans. The compound of Example 8 has shown selective control of yellow nutsedge and quackgrass in corn and soybeans. The respective crop/yellownutsedge GR15 /GR85 ratios being >2.2/0.95 (S.F.=2.5) in corn; 2.2/0.5 (SF=4.5) in soybeans and the respective GR15 /GR85 ratios for both corn and soybeans in quackgrass being >2.2/0.5 (S.F.=4.5). In a test against yellow nutsedge in cotton, the GR15 /GR85 ratio (average of two replicates) was 2.0/0.95 (S.F.=2).
In another greenhouse test, the compounds of Examples 3-5, 9 and 10 were tested for their herbicidal efficacy against a variety of resistant annual and perennial weeds in rape.

Barnyardgrass = assay: Resistance to leaching and resulting herbicidal efficacy; conditions: for inhibition at 140 g/ha / inhibition at 560 g/ha / inhibition at 2360 g/ha / inhibition at 2200 g/ha: Echinochloa crus-galli, read-out: Percent Inhibition
Protocol: Laboratory tests were conducted to determine the resistance of herbicides according to this invention to leaching into the soil and resulting herbicidal efficacy. […] The pots containing the treated soil were subjected to leaching by placing on a turntable which rotated under two nozzle tips of a water container calibrated to deliver one inch (2.5 cm) of water per hour simulating rainfall. Leaching rates were adjusted by varying the amount of time on the turntable. Water was delivered to the soil in the pots and allowed to percolate through the filter paper and drainage holes. The pots were then allowed to sit for three days at ambient room temperature. The treated soil in the pots was then removed, crumbled and placed as a surface layer on top of other pots containing the above soils seeded with barnyardgrass seeds. The pots were then placed on greenhouse benches, sub-irrigated and allowed to grow for 2-3 weeks. Visual ratings of percent growth inhibition compared to control (untreated) pots and fresh weights for barnyardgrass were recorded; the data from the control represents six replications and that for the test compounds three replications; test data are shown in Table XVIII.

common ragweed = assay: Greenhouse pre-emergence GR15/GR85 selectivity test; conditions: Table XV; for selectivity factor (GR15/GR85): in rape
Summary of the method: (§1)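 Pre-emergence soil-incorporation test: seeded pans were covered with topsoil mixed with active ingredient (in solvent or as wettable powder), overhead-irrigated (0.64 cm) or not, then subirrigated. Plants were scored about 2-3 weeks after treatment. GR15/GR85 rates are in kg/ha, and selectivity factor is crop GR15 divided by weed GR85.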

common purslane = assay: as above; conditions: Table XV
Summary of the method: as §1

prickly sida = assay: as above; conditions: Table XV
Summary of the method: as §1

redroot pigweed = assay: as above; conditions: Table XV; for selectivity factor (GR15/GR85): in rape
Summary of the method: as §1

[1] = Drummer silt clay, 0.14 Kg/Ha, rain 0 cm
[2] = Drummer silt clay, 0.14 Kg/Ha, rain 1.27 cm
[3] = Drummer silt clay, 0.14 Kg/Ha, rain 5.08 cm
[4] = Drummer silt clay, 0.14 Kg/Ha, rain 10.16 cm
[5] = Drummer silt clay, 0.56 Kg/Ha, rain 0 cm
[6] = Drummer silt clay, 0.56 Kg/Ha, rain 1.27 cm
[7] = Drummer silt clay, 0.56 Kg/Ha, rain 5.08 cm
[8] = Drummer silt clay, 0.56 Kg/Ha, rain 10.16 cm
[9] = Ray silt loam, 0.14 Kg/Ha, rain 0 cm
[10] = Ray silt loam, 0.14 Kg/Ha, rain 1.27 cm
[11] = Ray silt loam, 0.14 Kg/Ha, rain 5.08 cm
[12] = Ray silt loam, 0.56 Kg/Ha, rain 0 cm
[13] = Ray silt loam, 0.56 Kg/Ha, rain 1.27 cm
[14] = Ray silt loam, 0.56 Kg/Ha, rain 5.08 cm
[15] = Ray silt loam, 0.56 Kg/Ha, rain 10.16 cm
[16] = Ray silt loam, 2.36 Kg/Ha, rain 0 cm
[17] = Ray silt loam, 2.36 Kg/Ha, rain 1.27 cm
[18] = Ray silt loam, 2.36 Kg/Ha, rain 5.08 cm
[19] = Ray silt loam, 2.36 Kg/Ha, rain 10.16 cm
[20] = Ray silt loam, 0.14 Kg/Ha, rain 10.16 cm
[21] = Ray silt loam, 2.2 Kg/Ha, rain 0 cm
[22] = Ray silt loam, 2.2 Kg/Ha, rain 1.27 cm
[23] = Ray silt loam, 2.2 Kg/Ha, rain 5.08 cm
[24] = Ray silt loam, 2.2 Kg/Ha, rain 10.16 cm

CCCOCN(C(=O)CCl)c1c(C)cccc1C(F)(F)F [Example 3, N--(n-propoxymethyl)-2'-trifluoromethyl-6'-methyl-2-chloroacetanilide]
GR15 (soybeans; Florida muck): > 2.2 Kg/Ha | GR15 (soybeans; Florida sand): 2.0 Kg/Ha | GR15 (soybeans; Wabash silty clay): 2.0 Kg/Ha | GR85 Rate (purple nutsedge): 0.12 Kg/Ha | selectivity factor (GR15/GR85) (purple nutsedge): 7.5 | inhibition at 140 g/ha (Barnyardgrass; [1]): 81% | inhibition at 140 g/ha (Barnyardgrass; [2]): 99% | inhibition at 140 g/ha (Barnyardgrass; [3]): 94% | inhibition at 140 g/ha (Barnyardgrass; [4]): 54% | inhibition at 560 g/ha (Barnyardgrass; [5]): 100% | inhibition at 560 g/ha (Barnyardgrass; [6]): 100% | inhibition at 560 g/ha (Barnyardgrass; [7]): 100% | inhibition at 560 g/ha (Barnyardgrass; [8]): 100% | inhibition at 2360 g/ha (Barnyardgrass; Drummer silt clay, 2.36 Kg/Ha, rain 0 cm): 100% | inhibition at 2360 g/ha (Barnyardgrass; Drummer silt clay, 2.36 Kg/Ha, rain 1.27 cm): 100% | inhibition at 2360 g/ha (Barnyardgrass; Drummer silt clay, 2.36 Kg/Ha, rain 5.08 cm): 100% | inhibition at 2360 g/ha (Barnyardgrass; Drummer silt clay, 2.36 Kg/Ha, rain 10.16 cm): 100% | inhibition at 140 g/ha (Barnyardgrass; [9]): 99% | inhibition at 140 g/ha (Barnyardgrass; [10]): 95% | inhibition at 140 g/ha (Barnyardgrass; [11]): 63% | inhibition at 560 g/ha (Barnyardgrass; [12]): 100% | inhibition at 560 g/ha (Barnyardgrass; [13]): 100% | inhibition at 560 g/ha (Barnyardgrass; [14]): 94% | inhibition at 560 g/ha (Barnyardgrass; [15]): 52% | inhibition at 2360 g/ha (Barnyardgrass; [16]): 100% | inhibition at 2360 g/ha (Barnyardgrass; [17]): 100% | inhibition at 2360 g/ha (Barnyardgrass; [18]): 100% | inhibition at 2360 g/ha (Barnyardgrass; [19]): 95% | inhibition at 140 g/ha (Barnyardgrass; [20]): 14% | Fresh Weight (Barnyardgrass; [9]): 0.05 Grams | Fresh Weight (Barnyardgrass; [10]): 0.22 Grams | Fresh Weight (Barnyardgrass; [11]): 1.53 Grams | Fresh Weight (Barnyardgrass; [20]): 3.51 Grams | Fresh Weight (Barnyardgrass; [12]): 0 Grams | Fresh Weight (Barnyardgrass; [13]): 0 Grams | Fresh Weight (Barnyardgrass; [14]): 0.24 Grams | Fresh Weight (Barnyardgrass; [15]): 1.97 Grams | Fresh Weight (Barnyardgrass; [16]): 0 Grams | Fresh Weight (Barnyardgrass; [17]): 0 Grams | Fresh Weight (Barnyardgrass; [18]): 0 Grams | Fresh Weight (Barnyardgrass; [19]): 0.22 Grams | GR85 Rate (common ragweed): 0.49 Kg/Ha | selectivity factor (GR15/GR85) (common ragweed): 1.8 | GR85 Rate (common purslane): 0.70 Kg/Ha | selectivity factor (GR15/GR85) (common purslane; in rape): 1.3 | GR85 Rate (prickly sida): > 1.12 Kg/Ha | selectivity factor (GR15/GR85) (prickly sida; in rape): NS (non-selective) | GR85 Rate (redroot pigweed): 0.39 Kg/Ha | selectivity factor (GR15/GR85) (redroot pigweed): 2.3

Cc1cccc(C(F)(F)F)c1N(COCC(C)C)C(=O)CCl [Example 5, N--(isobutoxymethyl)-2'-trifluoromethyl-6'-methyl-2-chloroacetanilide]
GR15 (soybeans; Drummer silty clay): 2.2 Kg/Ha | GR15 (soybeans; Florida muck): > 2.0 Kg/Ha | GR15 (soybeans; Florida sand): 3.0 Kg/Ha | GR15 (soybeans; Ray silt loam): 2.0 Kg/Ha | GR15 (soybeans; Sarpy silty clay): 3.0 Kg/Ha | GR15 (soybeans; Wabash silty clay): 2.2 Kg/Ha | GR85 Rate (purple nutsedge): 0.23 Kg/Ha | selectivity factor (GR15/GR85) (purple nutsedge): > 4.9 | inhibition at 140 g/ha (Barnyardgrass; [1]): 12% | inhibition at 140 g/ha (Barnyardgrass; [2]): 26% | inhibition at 140 g/ha (Barnyardgrass; [3]): 20% | inhibition at 140 g/ha (Barnyardgrass; [4]): 12% | inhibition at 560 g/ha (Barnyardgrass; [5]): 50% | inhibition at 560 g/ha (Barnyardgrass; [6]): 100% | inhibition at 560 g/ha (Barnyardgrass; [7]): 93% | inhibition at 560 g/ha (Barnyardgrass; [8]): 84% | inhibition at 2200 g/ha (Barnyardgrass; Drummer silt clay, 2.2 Kg/Ha, rain 0 cm): 100% | inhibition at 2200 g/ha (Barnyardgrass; Drummer silt clay, 2.2 Kg/Ha, rain 1.27 cm): 100% | inhibition at 2200 g/ha (Barnyardgrass; Drummer silt clay, 2.2 Kg/Ha, rain 5.08 cm): 100% | inhibition at 2200 g/ha (Barnyardgrass; Drummer silt clay, 2.2 Kg/Ha, rain 10.16 cm): 100% | inhibition at 140 g/ha (Barnyardgrass; [9]): 84% | inhibition at 140 g/ha (Barnyardgrass; [10]): 90% | inhibition at 140 g/ha (Barnyardgrass; [11]): 58% | inhibition at 560 g/ha (Barnyardgrass; [12]): 99% | inhibition at 560 g/ha (Barnyardgrass; [13]): 99% | inhibition at 560 g/ha (Barnyardgrass; [14]): 90% | inhibition at 560 g/ha (Barnyardgrass; [15]): 72% | inhibition at 2200 g/ha (Barnyardgrass; [21]): 100% | inhibition at 2200 g/ha (Barnyardgrass; [22]): 100% | inhibition at 2200 g/ha (Barnyardgrass; [23]): 99% | inhibition at 2200 g/ha (Barnyardgrass; [24]): 84% | inhibition at 140 g/ha (Barnyardgrass; [20]): 29% | Fresh Weight (Barnyardgrass; [9]): 0.66 Grams | Fresh Weight (Barnyardgrass; [10]): 0.43 Grams | Fresh Weight (Barnyardgrass; [11]): 1.72 Grams | Fresh Weight (Barnyardgrass; [20]): 2.92 Grams | Fresh Weight (Barnyardgrass; [12]): 0.04 Grams | Fresh Weight (Barnyardgrass; [13]): 0.02 Grams | Fresh Weight (Barnyardgrass; [14]): 0.41 Grams | Fresh Weight (Barnyardgrass; [15]): 1.17 Grams | Fresh Weight (Barnyardgrass; [21]): 0 Grams | Fresh Weight (Barnyardgrass; [22]): 0 Grams | Fresh Weight (Barnyardgrass; [23]): 0.03 Grams | Fresh Weight (Barnyardgrass; [24]): 0.64 Grams | GR85 Rate (common ragweed): 0.98 Kg/Ha | selectivity factor (GR15/GR85) (common ragweed): > 1.1 | GR85 Rate (common purslane): > 1.12 Kg/Ha | GR85 Rate (prickly sida): > 1.12 Kg/Ha | GR85 Rate (redroot pigweed): 0.50 Kg/Ha | selectivity factor (GR15/GR85) (redroot pigweed): > 2.2

Reference: patent US4731109A, “Herbicidal 2-haloacetanilides” (Monsanto Company, priority 1982, dated 1988)
